Publication PMC11154920 (ACS Omega, 2024)

Tests used:
[1] = system: cytochrome P450 3A4 (CYP3A4); conditions: cited from earlier work
[2] = Stability of DEM and DEX in rat plasma; type: physicochemical
[3] = system: Cytochrome P450 2D6 (CYP2D6); conditions: cited from earlier work
[4] = cited from earlier work
CYP3A4 = conditions: in vitro; cited from earlier work
[5] = autosampler stability (64 h and 3 min), HQC
[6] = autosampler stability (64 h and 3 min), LQC
[7] = benchtop stability (19 h and 28 min), HQC, rat plasma
[8] = benchtop stability (19 h and 28 min), LQC, rat plasma
[9] = freeze thaw stability (five cycles), HQC
[10] = freeze thaw stability (five cycles), HQC: nominal DEM 302.52, DEX 156.76 ng/mL
[11] = freeze thaw stability (five cycles), LQC
[12] = freeze thaw stability (five cycles), LQC: nominal DEM 0.58, DEX 0.30 ng/mL
[13] = long-term stability (49 days), HQC
[14] = long-term stability (49 days), LQC
[15] = long-term stability (49 days), −70 °C, HQC: nominal DEM 302.52, DEX 156.76 ng/mL
[16] = long-term stability (49 days), −70 °C, LQC: nominal DEM 0.58, DEX 0.30 ng/mL
[17] = processed sample stability (28 h and 21 min), HQC
[18] = processed sample stability (28 h and 21 min), LQC
[19] = wet extract stability (42 h and 12 min), HQC
[20] = wet extract stability (42 h and 12 min), LQC
[21] = wet extract stability (42 h and 12 min), LQC: nominal DEM 0.58, DEX 0.30 ng/mL

## COc1ccc2c(c1)[C@]13CCCC[C@@H]1[C@H](C2)N(C)CC3 [DEM, Dextromethorphan]
[1]
  share of metabolism of DEM to 3-methoxymorphinan by CYP3A4: 90%
[2]; [5]
  % difference: 2.32%
[2]; [6]
  % difference: 3.51%
[2]; [7]
  % difference: –0.36%
[2]; [8]
  % difference: 5.29%
[2]; [9]
  % difference: –2.53%
[2]; [10]
  calculated conc.: 293.62 ± 16.24 ng/mL
[2]; [11]
  % difference: 1.72%
[2]; [12]
  calculated conc.: 0.57 ± 0.03 ng/mL
[2]; [13]
  % difference: –0.54%
[2]; [14]
  % difference: 3.51%
[2]; [15]
  calculated conc.: 299.62 ± 9.41 ng/mL
[2]; [16]
  calculated conc.: 0.58 ± 0.03 ng/mL
[2]; [17]
  % difference: 2.35%
[2]; [18]
  % difference: –0.06%
[2]; [19]
  % difference: –0.83%
[2]; [20]
  % difference: 8.86%
[2]; [21]
  calculated conc.: 0.61 ± 0.05 ng/mL
[3]
  share of metabolism of DEM to DEX by CYP2D6: 80%

## CN1CC[C@@]23CCCC[C@@H]2[C@@H]1Cc1ccc(O)cc13 [DEX, dextrorphan]
[2]; [5]
  % difference: –3.41%
[2]; [6]
  % difference: –3.45%
[2]; [7]
  % difference: –0.70%
[2]; [8]
  % difference: 0.00%
[2]; [9]
  % difference: 0.66%
[2]; [10]
  calculated conc.: 156.02 ± 1.22 ng/mL
[2]; [11]
  % difference: 3.45%
[2]; [12]
  calculated conc.: 0.30 ± 0.02 ng/mL
[2]; [13]
  % difference: 0.32%
[2]; [14]
  % difference: 3.45%
[2]; [15]
  calculated conc.: 155.49 ± 7.51 ng/mL
[2]; [16]
  calculated conc.: 0.30 ± 0.02 ng/mL
[2]; [17]
  % difference: –1.99%
[2]; [18]
  % difference: 3.45%
[2]; [19]
  % difference: –0.69%
[2]; [20]
  % difference: 6.90%
[2]; [21]
  calculated conc.: 0.31 ± 0.02 ng/mL
[4]
  fraction rapidly glucuronidated: 98%

## COc1cc2c(cc1O)CC[n+]1cc3c(OC)c(OC)ccc3cc1-2 [M38, jatrorrhizine]
CYP3A4
  inhibition of CYP3A4: reported to inhibit CYP3A4
